# Results taken from ChEMBL document CHEMBL5338820, “Discovery and Design of Novel Cyclic Peptides as Specific Inhibitors Targeting CCN2 and Disrupting CCN2/EGFR Interaction for Kidney Fibrosis Treatment” (J Med Chem, 2023).
# Calls of active or inactive are those of the source. No cut-off for these calls is given here. Peptide text beside a SMILES is read from it.
# Columns and labels:
# [1] = target: T1, CCN family member 2 (Homo sapiens) (UniProt P29279); assay: Inhibition of recombinant human CCN2 FL domain expressed in human […] cells assessed as reduction in COL1A1 synthesis at 0.1 mg/ml incubated for 24 hrs by Western blotting assay; assay type: cell-based
# T1 sequence (whole entry): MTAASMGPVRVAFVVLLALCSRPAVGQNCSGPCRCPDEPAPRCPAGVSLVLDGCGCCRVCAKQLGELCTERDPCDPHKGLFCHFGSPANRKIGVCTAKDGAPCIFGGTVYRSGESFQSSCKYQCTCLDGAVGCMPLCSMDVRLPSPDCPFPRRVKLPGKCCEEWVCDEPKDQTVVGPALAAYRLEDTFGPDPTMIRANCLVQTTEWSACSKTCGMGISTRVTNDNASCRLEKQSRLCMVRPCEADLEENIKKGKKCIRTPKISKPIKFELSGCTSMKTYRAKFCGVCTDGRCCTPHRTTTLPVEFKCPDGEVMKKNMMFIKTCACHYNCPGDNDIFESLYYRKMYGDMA
# [2] = target: T1, CCN family member 2 (Homo sapiens); assay: Inhibition of recombinant human CCN2 FL domain expressed in human HK-1 cells assessed as reduction in fibronectin synthesis at 0.1 mg/ml incubated for 24 hrs by Western blotting assay; assay type: cell-based
# [3] = target: T1, CCN family member 2 (Homo sapiens); assay: Inhibition of recombinant human CCN2 CT domain expressed in human […] cells assessed as reduction in COL1A1 synthesis at 0.1 mg/ml incubated for 24 hrs by Western blotting assay; assay type: cell-based
# CCN2-EGFR (Homo sapiens) [4] = target: T2, CCN2-EGFR (Homo sapiens) (UniProt P00533+P29279); assay: Inhibition of His-tagged full length human CCN2 FL domain/human Fc-tagged EGFR protein-protein interaction using TMB as chromogenic substrate at 0.1 mg/ml incubated for 140 mins by microplate reader assay relative to control
# T2 sequence (P00533 whole entry, looked up, one chain of several, the tested form may be a part): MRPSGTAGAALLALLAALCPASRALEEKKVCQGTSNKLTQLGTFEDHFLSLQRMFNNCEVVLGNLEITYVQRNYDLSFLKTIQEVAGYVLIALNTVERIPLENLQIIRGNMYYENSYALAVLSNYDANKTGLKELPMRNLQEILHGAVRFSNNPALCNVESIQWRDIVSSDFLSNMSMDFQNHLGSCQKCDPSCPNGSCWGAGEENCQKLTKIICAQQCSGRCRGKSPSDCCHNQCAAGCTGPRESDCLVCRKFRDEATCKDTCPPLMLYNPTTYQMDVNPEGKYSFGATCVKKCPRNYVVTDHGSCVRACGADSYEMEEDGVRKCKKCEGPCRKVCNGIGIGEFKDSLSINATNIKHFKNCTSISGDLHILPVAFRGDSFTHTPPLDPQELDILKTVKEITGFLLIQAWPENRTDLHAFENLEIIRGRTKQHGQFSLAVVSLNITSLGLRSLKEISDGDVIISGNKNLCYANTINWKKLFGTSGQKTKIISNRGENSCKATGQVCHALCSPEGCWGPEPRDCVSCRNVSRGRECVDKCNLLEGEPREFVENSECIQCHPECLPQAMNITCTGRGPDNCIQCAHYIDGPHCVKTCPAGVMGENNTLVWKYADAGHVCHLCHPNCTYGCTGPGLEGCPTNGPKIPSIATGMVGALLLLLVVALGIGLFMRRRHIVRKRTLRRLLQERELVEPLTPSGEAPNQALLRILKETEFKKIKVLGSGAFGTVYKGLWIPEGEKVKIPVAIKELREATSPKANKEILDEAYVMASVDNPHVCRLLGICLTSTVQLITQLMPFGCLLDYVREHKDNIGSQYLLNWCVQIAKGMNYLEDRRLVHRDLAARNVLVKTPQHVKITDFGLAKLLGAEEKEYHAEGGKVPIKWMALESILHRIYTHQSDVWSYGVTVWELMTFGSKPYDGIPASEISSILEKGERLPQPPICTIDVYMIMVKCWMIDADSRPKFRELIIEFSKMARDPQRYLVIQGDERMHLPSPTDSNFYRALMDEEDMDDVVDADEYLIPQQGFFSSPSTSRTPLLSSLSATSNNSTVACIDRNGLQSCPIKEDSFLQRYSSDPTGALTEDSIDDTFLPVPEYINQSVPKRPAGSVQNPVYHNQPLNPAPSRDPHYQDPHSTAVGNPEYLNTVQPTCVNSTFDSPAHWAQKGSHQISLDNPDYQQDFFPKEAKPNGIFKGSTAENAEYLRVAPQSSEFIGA
# CCN2-EGFR (Homo sapiens) [5] = target: T2, CCN2-EGFR (Homo sapiens); assay: Inhibition of His-tagged full length human CCN2 CT domain/human Fc-tagged EGFR protein-protein interaction using TMB as chromogenic substrate at 0.1 mg/ml incubated for 140 mins by microplate reader assay relative to control
# [6] = target: T1, CCN family member 2 (Homo sapiens); assay: Inhibition of recombinant human CCN2 CT domain expressed in human […] cells assessed as reduction in fibronectin synthesis at 0.1 mg/ml incubated for 24 hrs by Western blotting assay; assay type: cell-based
smiles,measurement,setting,value
CC(C)C[C@H](NC(=O)[C@@H](N)CC(C)C)C(=O)N[C@@H](C)C(=O)N[C@@H](CC(=O)O)C(=O)N[C@H](C(=O)N[C@H](C(=O)N[C@@H](Cc1c[nH]cn1)C(=O)N[C@@H](Cc1c[nH]cn1)C(=O)N[C@@H](CCCNC(=N)N)C(=O)N1CCC[C@H]1C(=O)N[C@@H](Cc1c[nH]c2ccccc12)C(=O)N[C@H](C(N)=O)[C@@H](C)O)[C@@H](C)O)[C@@H](C)O (H-LLADTTHHRPWT-NH2),inhibition,[1],Active
same,inhibition,[2],Active
same,inhibition,[3],Active
same,inhibition,CCN2-EGFR (Homo sapiens) [4],39.5%
same,inhibition,CCN2-EGFR (Homo sapiens) [5],71.4%
same,inhibition,[6],Active
